Reference: ChEMBL document CHEMBL1124313, “Benzodiazepine gastrin and brain cholecystokinin receptor ligands: L-365,260” (J Med Chem, 1989)
pIC50: −log10 of the molar value.

Columns and labels:
[1] = target: T1, Cholecystokinin receptor type A (Rattus norvegicus, UniProt P30551); test: Displacement of [125 I] CCK-8 from Cholecystokinin type A receptor of rat pancreas
T1 sequence (P30551 whole entry): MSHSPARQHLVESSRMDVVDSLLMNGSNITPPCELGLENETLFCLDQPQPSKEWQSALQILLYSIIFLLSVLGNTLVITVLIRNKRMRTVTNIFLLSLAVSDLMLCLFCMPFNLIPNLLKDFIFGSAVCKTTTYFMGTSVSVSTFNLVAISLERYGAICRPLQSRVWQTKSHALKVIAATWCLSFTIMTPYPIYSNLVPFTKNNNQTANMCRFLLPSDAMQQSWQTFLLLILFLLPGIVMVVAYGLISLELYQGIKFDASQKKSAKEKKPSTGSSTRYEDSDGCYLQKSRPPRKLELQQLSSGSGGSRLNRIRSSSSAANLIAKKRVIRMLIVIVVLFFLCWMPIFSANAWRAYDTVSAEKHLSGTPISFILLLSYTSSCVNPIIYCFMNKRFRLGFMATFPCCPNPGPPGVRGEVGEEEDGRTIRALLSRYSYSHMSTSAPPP

[2] = Displacement of 125 I-gastrin from gastrin receptor of guinea pig gastric glands

Row | SMILES | pIC50 [1] | pIC50 [2]
1 | CN1C(=O)[C@@H](NC(=O)c2ccc(Cl)cc2)N=C(c2ccccc2F)c2ccccc21 | 9.41 | 
2 | O=C(Nc1ccc(Cl)cc1)NC1N=C(c2ccccc2F)c2ccccc2NC1=O (racemic) | 6.96 | 
3 | CCOC(=O)CN1C(=O)C(NC(=O)c2ccc(Cl)cc2)N=C(c2ccccc2F)c2ccccc21 (racemic) |  | 6.16
4 | CN1C(=O)[C@H](NC(=O)c2ccc(Cl)cc2)N=C(c2ccccc2F)c2ccccc21 | 8.54 | 
